Molecules are shown by their SMILES. A value given as a limit tells only on which side of the number the result lay.

T1 sequence (Q86WV6 whole entry R71H/G230A/H232R/R293Q): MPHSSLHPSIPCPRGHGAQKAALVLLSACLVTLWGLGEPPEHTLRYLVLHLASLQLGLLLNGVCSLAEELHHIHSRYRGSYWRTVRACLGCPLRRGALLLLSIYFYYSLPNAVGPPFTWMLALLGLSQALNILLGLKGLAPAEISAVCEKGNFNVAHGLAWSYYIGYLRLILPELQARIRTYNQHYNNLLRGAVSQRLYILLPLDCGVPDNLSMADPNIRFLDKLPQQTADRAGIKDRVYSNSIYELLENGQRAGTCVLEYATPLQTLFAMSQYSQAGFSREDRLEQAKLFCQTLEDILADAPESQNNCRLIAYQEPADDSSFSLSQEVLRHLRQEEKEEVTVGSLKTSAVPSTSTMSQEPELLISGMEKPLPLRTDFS

This assay has as its target T1, STING (Homo sapiens, UniProt Q86WV6, G230A/H232R/R293Q/R71H).
T1 construct: host or cells: THP1-Dual cells (human THP-1 monocyte line with Lucia/SEAP reporters)
Description: Reporter gene expression assay in THP1-Dual cells (IRF pathway Lucia luciferase, 2',3'-cGAMP stimulation). It counts as cell-based. To be noted: 10 min preincubation, 5 μM 2',3'-cGAMP, 20 hr, IRF reporter QUANTI-Luc, read-out: THP-1 (HAQ) Activity. An outline of the steps:
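THP1-Dual cells preincubated 10 min with compound, then stimulated with 5 μM 2′,3′-cGAMP for 20 hr. Secreted Lucia luciferase (IRF reporter) measured in supernatant by luminescence; IC50 reported as ranges (A ≤1 μM, B >1–≤10 μM, C >10 μM).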
(Reporter assays use an easily measured gene product as a stand-in for the process of interest.)
With `COc1cc(F)c(CN2C(=O)CSc3cc(NC(=O)Nc4ccc5cc[nH]c5c4)ccc32)c(F)c1` [Example 126, 1-(4-(2,6-difluoro-4-methoxybenzyl)-3-oxo-3,4-dihydro-2H-benzo[b][1, 4]thiazin-7-yl)-3-(1H-indol-6-yl)urea], the IC50 was at most 1000 nM.
Then `O=C(Nc1ccc2c(c1)N(CC1CC1)CCS2)Nc1ccc2cc[nH]c2c1` [Example 65, 1-(4-(cyclopropyl-methyl)-3,4-dihydro-2H-benzo[b][1, 4]thiazin-6-yl)-3-(1H-indol-6-yl)urea], with at most 1000 nM; and `O=C(Nc1ccc2c(c1)OCCO2)Nc1ccc2c(c1)N(Cc1ccccc1)C(=O)CS2` [Example 23, 1-(4-benzyl-3-oxo-3,4-dihydro-2H-benzo[b] [1,4]thiazin-6-yl)-3-(2,3-dihydrobenzo [b][1,4]dioxin-6-yl)urea], with 1000 to 10000 nM; and `O=C(Nc1ccc2c(c1)NCCO2)Nc1ccc2c(c1)N(Cc1ccccc1)C(=O)CS2` [Example 51, 1-(4-benzyl-3-oxo-3,4-dihydro-2H-benzo[b][1, 4]thiazin-6-yl)-3-(3,4-dihydro-2H-benzo[b][1, 4]oxazin-6-yl)urea], with 1000 to 10000 nM.
Then `O=C(Nc1ccc2c(c1)OCC(=O)N2Cc1ccon1)Nc1ccc2cc[nH]c2c1` [Example 164, 1-(1H-indol-6-yl)-3-(4-(isoxazol-3-ylmethyl)-3-oxo-3,4-dihydro-2H-benzo[b][1, 4]oxazin-7-yl)urea], with 1000 to 10000 nM.
Take `NC(=O)c1ccccc1CN1C(=O)COc2cc(NC(=O)Nc3ccc4cc[nH]c4c3)ccc21` [Example 144, 2-((7-(3-(1H-indol-6-yl)ureido)-3-oxo-2,3-dihydro-4H-benzo[b][1, 4]oxazin-4-yl)methyl) benzamide]: the IC50 was in the range of 1000 to 10000 nM.
Next, `O=C(Nc1ccc2c(c1)OCC(=O)N2CCc1ccccc1Cl)Nc1ccc2cc[nH]c2c1` [Example 110, 1-(4-(2-chlorophenethyl)-3-oxo-3,4-dihydro-2H-benzo[b][1,4]oxazin-7-yl)-3-(1H-indol-6-yl)urea]: 1000 to 10000 nM; `Cc1cc2ccc(NC(=O)Nc3ccc4c(c3)OCC(=O)N4Cc3ccccc3)cc2[nH]1` [Example 92, 1-(4-benzyl-3-oxo-3,4-dihydro-2H-benzo[b][1, 4]oxazin-7-yl)-3-(2-methyl-1H-indol-6-yl)urea]: 1000 to 10000 nM.
In the case of `O=C(Nc1ccc2c(c1)N(C(=O)c1ccccc1)CCS2)Nc1ccc2cc[nH]c2c1` [Example 57, 1-(4-benzoyl-3,4-dihydro-2H-benzo[b][1, 4]thiazin-6-yl)-3-(1H-indol-6-yl)urea], the IC50 is above 10000 nM.
Then `O=C(Nc1ccc2c(c1)OCC(=O)N2CC1COCCO1)Nc1ccc2cc[nH]c2c1` (stereo not drawn) [Example 145, l-(4-((1,4-dioxan-2-yl)methyl)-3-oxo-3,4-dihydro-2H-benzo[b][1, 4]oxazin-7-yl)-3-(1H-indol-6-yl)urea], with 1000 to 10000 nM; and `O=C(Nc1ccc2cc[nH]c2c1)Nc1cc2c(cc1Br)N(Cc1ccccc1)C(=O)CO2` [Example 166, 1-(4-benzyl-6-bromo-3-oxo-3,4-dihydro-2H-benzo[b][1, 4]oxazin-7-yl)-3-(1H-indol-6-yl)urea], with 1000 to 10000 nM.
Then `O=C(Nc1ccc2c(c1)OCC(=O)N2Cc1cccc(CO)c1)Nc1ccc2cc[nH]c2c1` [Example 156, 1-(4-(3-(hydroxymethyl)benzyl)-3-oxo-3,4-dihydro-2H-benzo[b][1, 4]oxazin-7-yl)-3-(1H-indol-6-yl)urea], with 1000 to 10000 nM; and `O=C(Nc1ccc2c(c1)OCC(=O)N2Cc1ccccc1)NC1CCc2ccccc2C1` (stereo not shown) [Example 135, 1-(4-benzyl-3-oxo-3,4-dihydro-2H-benzo[b][1, 4]oxazin-7-yl)-3-(1,2,3,4-tetrahydro-naphthalen-2-yl)urea], with 1000 to 10000 nM; and `O=C(Nc1ccc2c(c1)OCC(=O)N2Cc1ccc2c(c1)OCO2)Nc1ccc2cc[nH]c2c1` [Example 114, 1-(4-(benzo[d][1,3]dioxol-5-ylmethyl)-3-oxo-3,4-dihydro-2H-benzo[b][1,4]oxazin-7-yl)-3-(1H-indol-6-yl)urea], with at most 1000 nM.
Then `O=C(Nc1ccc2c(c1)CCCC2)Nc1ccc2c(c1)OCC(=O)N2Cc1ccccc1` [Example 133, 1-(4-benzyl-3-oxo-3,4-dihydro-2H-benzo[b][1, 4]oxazin-7-yl)-3-(5,6,7,8-tetrahydro-naphthalen-2-yl)urea], with 1000 to 10000 nM.
In the case of `O=C(Nc1ccc2c(c1)OCC(=O)N2Cc1ccc(OC(F)(F)F)c(Cl)c1)Nc1ccc2cc[nH]c2c1` [Example 107, 1-(4-(3-chloro-4-(trifluoromethoxy)benzyl)-3-oxo-3,4-dihydro-2H-benzo[b][1,4]oxazin-7-yl)-3-(1H-indol-6-yl)urea], the IC50 was at most 1000 nM.
Then `CC1(C)Oc2cc(NC(=O)Nc3ccc4cc[nH]c4c3)ccc2N(Cc2ccccc2)C1=O` [Example 90, 1-(4-benzyl-2,2-dimethyl-3-oxo-3,4-dihydro-2H-benzo[b][1, 4]oxazin-7-yl)-3-(1H-indol-6-yl)urea], with 1000 to 10000 nM; and `O=C(Nc1ccc2c(c1)OCC(=O)N2Cc1cnc[nH]1)Nc1ccc2cc[nH]c2c1` [Example 162, 1-(4-((1H-imidazol-5-yl)methyl)-3-oxo-3,4-dihydro-2H-benzo[b][1, 4]oxazin-7-yl)-3-(1H-indol-6-yl)urea], with above 10000 nM.
Then `O=C1CCc2ccc(NC(=O)Nc3ccc4c(c3)N(Cc3ccccc3)C(=O)CS4)cc2N1` [Example 29, 1-(4-benzyl-3-oxo-3,4-dihydro-2H-benzo[b][1, 4]thiazin-6-yl)-3-(2-oxo-1,2,3,4-tetrahydro-quinolin-7-yl)urea], with 1000 to 10000 nM; and `O=C(Nc1ccc2c(c1)OCC(=O)N2Cc1ccccc1-c1ccccc1)Nc1ccc2cc[nH]c2c1` [Example 101, 1-(4-([1,1′-biphenyl]-2-ylmethyl)-3-oxo-3,4-dihydro-2H-benzo[b][1,4]oxazin-7-yl)-3-(1H-indol-6-yl)urea], with at most 1000 nM.
For `O=C(Nc1ccc2c(c1)N(c1ccccc1)CCS2)Nc1ccc2cc[nH]c2c1` [Example 72, 3-(1H-Indol-6-yl)-3-(4-phenyl-3,4-dihydro-2H-benzo[b][1,4]thiazin-6-yl)urea], the IC50 is at most 1000 nM.
Next, `NC(=O)c1cccc(CN2C(=O)COc3cc(NC(=O)Nc4ccc5cc[nH]c5c4)ccc32)c1` [Example 98, 3-((7-(3-(1H-indol-6-yl)ureido)-3-oxo-2,3-dihydro-4H-benzo[b][1,4]oxazin-4-yl)methyl)benzamide]: 1000 to 10000 nM; `Nc1ncc2c(n1)CCN(C(=O)Nc1ccc3c(c1)N(Cc1ccccc1)C(=O)CS3)C2` [Example 194, 2-amino-N-(4-benzyl-3-oxo-3,4-dihydro-2H-benzo[b][1, 4]thiazin-6-yl)-7,8-dihydropyrido [4,3-d] pyrimidine-6(5H)-carboxamide]: above 10000 nM.
Then `O=C(Nc1ccc2c(c1)OCC(=O)N2Cc1cccnc1)Nc1ccc2cc[nH]c2c1` [Example 148, 1-(1H-indol-6-yl)-3-(3-oxo-4-(pyridin-3-ylmethyl)-3,4-dihydro-2H-benzo [b][1, 4]oxazin-7-yl)urea], with 1000 to 10000 nM; and `CN1CCSc2ccc(NC(=O)Nc3ccc4cc[nH]c4c3)cc21` [Example 168, 1-(1H-indol-6-yl)-3-(4-methyl-3,4-dihydro-2H-benzo[b][1, 4]thiazin-6-yl)urea], with above 10000 nM; and `O=C(Nc1ccc2c(c1)OCC(=O)N2Cc1cc(F)cc(F)c1)Nc1ccc2cc[nH]c2c1` [Example 105, 1-(4-(3,5-difluorobenzyl)-3-oxo-3,4-dihydro-2H-benzo[b][1,4]oxazin-7-yl)-3-(1H-indol-6-yl)urea], with at most 1000 nM.
`O=C(Nc1ccc2c(c1)N(Cc1ccccc1)C(=O)CS2)Nc1ccc2cn[nH]c2c1` [Example 28, 1-(4-benzyl-3-oxo-3,4-dihydro-2H-benzo[b][1, 4]thiazin-6-yl)-3-(1H-indazol-6-yl)urea]: the IC50 is 1000 to 10000 nM.
Then `N#Cc1cccc(CN2C(=O)COc3cc(NC(=O)Nc4ccc5cc[nH]c5c4)ccc32)c1` [Example 116, l-(4-(3-cyanobenzyl)-3-oxo-3,4-dihydro-2H-benzo[b][1, 4]oxazin-7-yl)-3-(1H-indol-6-yl)urea], with 1000 to 10000 nM; and `CC1Sc2ccc(NC(=O)Nc3ccccc3)cc2N(Cc2ccccc2)C1=O` (stereo not shown) [Example 32, 1-(4-benzyl-2-methyl-3-oxo-3,4-dihydro-2H-benzo[b][1, 4]thiazin-6-yl)-3-phenylurea], with 1000 to 10000 nM; and `O=C(Nc1ccc2c(c1)N(Cc1ccncc1)CCS2)Nc1ccc2cc[nH]c2c1` [Example 66, 1-(1H-indol-6-yl)-3-(4-(pyridin-4-ylmethyl)-3,4-dihydro-2H-benzo[b][1, 4]thiazin-6-yl)urea], with at most 1000 nM.
Then `NC(=O)c1ccc(NC(=O)Nc2ccc3c(c2)N(Cc2ccccc2)C(=O)CS3)cc1` [Example 33, 4-(3-(4-benzyl-3-oxo-3,4-dihydro-2H-benzo[b][1, 4]thiazin-6-yl)ureido) benzamide], with 1000 to 10000 nM; and `O=C(Nc1ccccc1)Nc1ccc2c(c1)N(Cc1ccccc1)C(=O)CS2` [Example 2, 1-(4-benzyl-3-oxo-3,4-dihydro-2H-benzo[b][1, 4]thiazin-6-yl)-3-phenylurea], with 1000 to 10000 nM; and `O=C(Nc1ccc2c(c1)OCC(=O)N2Cc1cccc(O)c1)Nc1ccc2cc[nH]c2c1` [Example 152, 1-(4-(3-hydroxybenzyl)-3-oxo-3,4-dihydro-2H-benzo[b][1, 4]oxazin-7-yl)-3-(1H-indol-6-yl)urea], with 1000 to 10000 nM.
For `O=C(Nc1ccc2c(c1)N(C(C(=O)NC1CC1)c1ccccc1)CCO2)Nc1ccc2cc[nH]c2c1` (stereo not shown) [Example 190, 2-(6-(3-(1H-indol-6-yl)ureido)-2,3-dihydro-4H-benzo[b][1,4]oxazin-4-yl)-N-cyclopropyl-2-phenylacetamide], the IC50 lay in the range of 1000 to 10000 nM.

The values are drawn from US20230124361A1, “SMALL MOLECULE STING ANTAGONISTS” (CURADEV PHARMA PVT. LTD., priority 2020, published 2023).
